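96-well plates; 48 h exposure; 5 concentrations. Endpoints by linear interpolation between flanking doses. Not reached: highest tested concentration assigned. GI50 marks 50% less growth. Definition used: TGI = concentration required for complete inhibition of growth.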
What was measured:
Test in all cases: NCI tumour cell line growth inhibition, 48 h
[1] = system: 786-0 renal
[2] = system: A498 renal
[3] = system: A549 NSCLC
[4] = system: ACHN renal
[5] = system: BT-549 breast
[6] = system: CAKI-1 renal
[7] = system: CCRF-CEM leukemia
[8] = system: COLO 205 colon
[9] = system: DU-145 prostate
[10] = system: EKVX NSCLC
[11] = system: HCC-2998 colon
[12] = system: HCT-116 colon
[13] = system: HCT-15 colon
[14] = system: HL-60(TB) leukemia
[15] = system: HOP-62 NSCLC
[16] = system: HOP-92 NSCLC
[17] = system: HS 578T breast
[18] = system: HT29 colon
[19] = system: IGROV1 ovarian
[20] = system: K-562 leukemia
[21] = system: KM12 colon
[22] = system: LOX IMVI melanoma
[23] = system: M14 melanoma
[24] = system: MALME-3M melanoma
[25] = system: MCF7 breast
[26] = system: MDA-MB-231 breast
[27] = system: MDA-MB-435
[28] = system: MDA-MB-468 breast
[29] = system: MOLT-4 leukemia
[30] = system: NCI-H226 lung
[31] = system: NCI-H23 lung
[32] = system: NCI-H460 lung
[33] = system: NCI-H522 lung
[34] = system: NCI/ADR-RES ovarian
[35] = system: OVCAR-3 ovarian
[36] = system: OVCAR-4 ovarian
[37] = system: OVCAR-5 ovarian
[38] = system: OVCAR-8 ovarian
[39] = system: PC-3 prostate
[40] = system: RPMI-8226 leukemia
[41] = system: RXF 393 renal
[42] = system: SF-268 CNS
[43] = system: SF-295 CNS
[44] = system: SF-539 CNS
[45] = system: SK-MEL-2 melanoma
[46] = system: SK-MEL-28 melanoma
[47] = system: SK-MEL-5 melanoma
[48] = system: SK-OV-3 ovarian
[49] = system: SN12C renal
[50] = system: SNB-19 CNS
[51] = system: SNB-75 CNS
[52] = system: SR leukemia
[53] = system: SW-620 colon
[54] = system: T-47D breast
[55] = system: TK-10 renal
[56] = system: U251 CNS
[57] = system: UACC-257 melanoma
[58] = system: UACC-62 melanoma
[59] = system: UO-31 renal

COc1ccc2[nH]cc(/C=N/Nc3ccc(Br)cn3)c2c1
GI50 [1]: 12.6 µM
TGI [1]: 40.1 µM
GI50 [2]: 20.5 µM
TGI [2]: 61.7 µM
GI50 [3]: 8.12 µM
TGI [3]: > 100 µM
GI50 [4]: 7.76 µM
TGI [4]: > 100 µM
GI50 [5]: 0.176 µM
TGI [5]: > 100 µM
GI50 [6]: 3.01 µM
TGI [6]: > 100 µM
GI50 [7]: 0.466 µM
TGI [7]: 41 µM
GI50 [8]: 15.7 µM
TGI [8]: 67.9 µM
GI50 [9]: 13.3 µM
TGI [9]: > 100 µM
GI50 [10]: 2.71 µM
TGI [10]: > 100 µM
GI50 [11]: 5.74 µM
TGI [11]: 32.5 µM
GI50 [12]: 5.97 µM
TGI [12]: > 100 µM
GI50 [13]: 4.46 µM
TGI [13]: > 100 µM
GI50 [14]: 2.54 µM
TGI [14]: 28.3 µM
GI50 [15]: 10.1 µM
TGI [15]: > 100 µM
GI50 [16]: 2.22 µM
TGI [16]: 19.3 µM
GI50 [17]: 6.91 µM
TGI [17]: 68.2 µM
GI50 [18]: 8.77 µM
TGI [18]: > 100 µM
GI50 [19]: 0.634 µM
TGI [19]: 6.41 µM
GI50 [20]: 2.94 µM
TGI [20]: > 100 µM
GI50 [21]: 2.71 µM
TGI [21]: 24.7 µM
GI50 [22]: 3.4 µM
TGI [22]: 24.7 µM
GI50 [23]: 7.27 µM
TGI [23]: > 100 µM
GI50 [24]: 82.7 µM
TGI [24]: > 100 µM
GI50 [25]: 1.7 µM
TGI [25]: > 100 µM
GI50 [26]: 1.93 µM
TGI [26]: 8.71 µM
GI50 [27]: 6.73 µM
TGI [27]: > 100 µM
GI50 [28]: 1.74 µM
TGI [28]: 6.4 µM
GI50 [29]: 2.85 µM
TGI [29]: > 100 µM
GI50 [30]: 2.02 µM
TGI [30]: > 100 µM
GI50 [31]: 11.6 µM
TGI [31]: > 100 µM
GI50 [32]: 7.68 µM
TGI [32]: > 100 µM
GI50 [33]: 3.11 µM
TGI [33]: 33.5 µM
GI50 [34]: 5.33 µM
TGI [34]: > 100 µM
GI50 [35]: 11.6 µM
TGI [35]: > 100 µM
GI50 [36]: 43.2 µM
TGI [36]: > 100 µM
GI50 [37]: 4.17 µM
TGI [37]: 79.4 µM
GI50 [38]: 20.8 µM
TGI [38]: > 100 µM
GI50 [39]: 2.55 µM
TGI [39]: > 100 µM
GI50 [40]: 1.62 µM
TGI [40]: 9.07 µM
GI50 [41]: 2.09 µM
TGI [41]: 31.5 µM
GI50 [42]: 5.23 µM
TGI [42]: > 100 µM
GI50 [43]: 9.13 µM
TGI [43]: 48.4 µM
GI50 [44]: 2.65 µM
TGI [44]: 37.3 µM
GI50 [45]: 21.4 µM
TGI [45]: 81.8 µM
GI50 [46]: 29.1 µM
TGI [46]: > 100 µM
GI50 [47]: 7.41 µM
TGI [47]: 25.3 µM
GI50 [48]: 6.19 µM
TGI [48]: > 100 µM
GI50 [49]: 2.38 µM
TGI [49]: 65.9 µM
GI50 [50]: 20.7 µM
TGI [50]: > 100 µM
GI50 [51]: 0.286 µM
TGI [51]: 55.1 µM
GI50 [52]: 4.8 µM
TGI [52]: 58.3 µM
GI50 [53]: 15.7 µM
TGI [53]: > 100 µM
GI50 [54]: 3.22 µM
TGI [54]: > 100 µM
GI50 [55]: 18.6 µM
TGI [55]: > 100 µM
GI50 [56]: 15.9 µM
TGI [56]: > 100 µM
GI50 [57]: 25.1 µM
TGI [57]: > 100 µM
GI50 [58]: 8.45 µM
TGI [58]: > 100 µM
GI50 [59]: 1.09 µM
TGI [59]: > 100 µM
